# Measurements reported in PubChem BioAssay (NCI).
#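 48-hour exposure; five concentrations; linearly interpolated endpoints. Definition used: TGI = concentration required for complete inhibition of growth.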
# Assays:
# Assay in all cases: NCI anticancer screen, dose series, 48 h
# [1] = system: NCI-H226 lung
# [2] = system: HOP-62 NSCLC
# [3] = system: UACC-257 melanoma
# [4] = system: SK-MEL-5 melanoma
# [5] = system: SF-539 CNS
# [6] = system: NCI/ADR-RES ovarian
# [7] = system: ACHN renal
# [8] = system: MALME-3M melanoma
# [9] = system: T-47D breast
# [10] = system: M14 melanoma
# [11] = system: HT29 colon
# [12] = system: OVCAR-3 ovarian
# [13] = system: SF-268 CNS
# [14] = system: MOLT-4 leukemia
# [15] = system: HCC-2998 colon
# [16] = system: HCT-15 colon
# [17] = system: NCI-H460 lung
# [18] = system: EKVX NSCLC
# [19] = system: CAKI-1 renal
# [20] = system: KM12 colon
# [21] = system: DU-145 prostate
# [22] = system: HL-60(TB) leukemia
# [23] = system: OVCAR-5 ovarian
# [24] = system: SNB-19 CNS
# [25] = system: MDA-N
# [26] = system: K-562 leukemia
# [27] = system: HS 578T breast
# [28] = system: UO-31 renal
# [29] = system: SNB-75 CNS
# [30] = system: HOP-92 NSCLC
# [31] = system: MDA-MB-435
# [32] = system: SW-620 colon
# [33] = system: TK-10 renal
# [34] = system: MDA-MB-231 breast
# [35] = system: NCI-H522 lung
# [36] = system: U251 CNS
# [37] = system: RXF 393 renal
# [38] = system: SK-MEL-28 melanoma
# [39] = system: SK-MEL-2 melanoma
# [40] = system: NCI-H23 lung
# [41] = system: SN12C renal
# [42] = system: PC-3 prostate
# [43] = system: OVCAR-8 ovarian
# [44] = system: BT-549 breast
# [45] = system: IGROV1 ovarian
# [46] = system: OVCAR-4 ovarian
# [47] = system: COLO 205 colon
# [48] = system: MCF7 breast
# [49] = system: A549 NSCLC
# [50] = system: A498 renal
# [51] = system: RPMI-8226 leukemia
# [52] = system: SR leukemia
# [53] = system: SF-295 CNS
# [54] = system: HCT-116 colon
# [55] = system: 786-0 renal
# [56] = system: SK-OV-3 ovarian
# [57] = system: LOX IMVI melanoma
# [58] = system: UACC-62 melanoma
smiles,measurement,setting,value
c1ccc2c(c1)c1c(n2CCOCCCN2CCCCC2)CCCC1,TGI,[1],32.5 µM
same,TGI,[2],30.6 µM
same,TGI,[3],32.9 µM
same,TGI,[4],40.7 µM
same,TGI,[5],31.3 µM
same,TGI,[6],40.6 µM
same,TGI,[7],28.4 µM
same,TGI,[8],33.3 µM
same,TGI,[9],43.9 µM
same,TGI,[10],> 100 µM
same,TGI,[11],24.7 µM
same,TGI,[12],30.7 µM
same,TGI,[13],99.8 µM
same,TGI,[14],19.6 µM
same,TGI,[15],33.7 µM
same,TGI,[16],27.6 µM
same,TGI,[17],29.8 µM
same,TGI,[18],62.5 µM
same,TGI,[19],39.3 µM
same,TGI,[20],30 µM
same,TGI,[21],> 100 µM
same,TGI,[22],30.4 µM
same,TGI,[23],30 µM
same,TGI,[24],75.4 µM
same,TGI,[25],47.8 µM
same,TGI,[26],30.9 µM
same,TGI,[27],47.8 µM
same,TGI,[28],25.4 µM
same,TGI,[29],38.7 µM
same,TGI,[30],58.1 µM
same,TGI,[31],33.8 µM
same,TGI,[32],39.6 µM
same,TGI,[33],31.9 µM
same,TGI,[34],40.1 µM
same,TGI,[35],29.8 µM
same,TGI,[36],30.5 µM
same,TGI,[37],25.1 µM
same,TGI,[38],38.5 µM
same,TGI,[39],37.6 µM
same,TGI,[40],37.9 µM
same,TGI,[41],34.3 µM
same,TGI,[42],33.1 µM
same,TGI,[43],32.5 µM
same,TGI,[44],29.6 µM
same,TGI,[45],29.2 µM
same,TGI,[46],57 µM
same,TGI,[47],45.5 µM
same,TGI,[48],31.5 µM
same,TGI,[49],39.2 µM
same,TGI,[50],91.9 µM
same,TGI,[51],92 µM
same,TGI,[52],35.1 µM
O=[N+]([O-])c1ccc2c(c1)c1nn2CCCCOc2nn(c3ccc([N+](=O)[O-])cc23)CCCCO1,TGI,[1],> 100 µM
same,TGI,[2],> 100 µM
same,TGI,[3],> 100 µM
same,TGI,[5],> 100 µM
same,TGI,[6],> 100 µM
same,TGI,[53],> 100 µM
same,TGI,[7],> 100 µM
same,TGI,[8],> 100 µM
same,TGI,[9],> 100 µM
same,TGI,[54],> 100 µM
same,TGI,[10],> 100 µM
same,TGI,[12],> 100 µM
same,TGI,[55],> 100 µM
same,TGI,[13],> 100 µM
same,TGI,[14],> 100 µM
same,TGI,[15],> 100 µM
same,TGI,[16],> 100 µM
same,TGI,[17],> 100 µM
same,TGI,[18],> 100 µM
same,TGI,[19],> 100 µM
same,TGI,[56],> 100 µM
same,TGI,[21],> 100 µM
same,TGI,[22],> 100 µM
same,TGI,[23],> 100 µM
same,TGI,[24],> 100 µM
same,TGI,[25],> 100 µM
same,TGI,[57],> 100 µM
same,TGI,[26],> 100 µM
same,TGI,[27],> 100 µM
same,TGI,[28],> 100 µM
same,TGI,[29],> 100 µM
same,TGI,[30],> 100 µM
same,TGI,[31],> 100 µM
same,TGI,[34],> 100 µM
same,TGI,[35],> 100 µM
same,TGI,[36],> 100 µM
same,TGI,[37],> 100 µM
same,TGI,[38],> 100 µM
same,TGI,[39],> 100 µM
same,TGI,[40],> 100 µM
same,TGI,[41],> 100 µM
same,TGI,[42],> 100 µM
same,TGI,[43],> 100 µM
same,TGI,[44],> 100 µM
same,TGI,[45],> 100 µM
same,TGI,[46],> 100 µM
same,TGI,[47],> 100 µM
same,TGI,[48],> 100 µM
same,TGI,[50],> 100 µM
same,TGI,[51],> 100 µM
same,TGI,[52],> 100 µM
O=c1[nH]nc(-c2ccccc2)n1/N=C\CC/C=N\n1c(-c2ccccc2)n[nH]c1=O,TGI,[1],> 72.2 µM
same,TGI,[2],98.7 µM
same,TGI,[3],> 100 µM
same,TGI,[4],> 56 µM
same,TGI,[5],> 69.5 µM
same,TGI,[6],96.9 µM
same,TGI,[53],> 100 µM
same,TGI,[7],> 100 µM
same,TGI,[8],72.4 µM
same,TGI,[9],99 µM
same,TGI,[54],> 66.7 µM
same,TGI,[10],47.1 µM
same,TGI,[11],42.5 µM
same,TGI,[12],51.8 µM
same,TGI,[55],75.9 µM
same,TGI,[13],> 71 µM
same,TGI,[14],> 31.6 µM
same,TGI,[15],> 100 µM
same,TGI,[16],49.9 µM
same,TGI,[17],> 74.5 µM
same,TGI,[18],> 100 µM
same,TGI,[19],> 100 µM
same,TGI,[56],> 100 µM
same,TGI,[20],> 100 µM
same,TGI,[21],> 100 µM
same,TGI,[22],> 100 µM
same,TGI,[23],> 100 µM
same,TGI,[24],> 100 µM
same,TGI,[25],44.3 µM
same,TGI,[57],27.1 µM
same,TGI,[26],> 100 µM
same,TGI,[27],> 83.7 µM
same,TGI,[28],> 100 µM
same,TGI,[29],> 100 µM
same,TGI,[30],84.6 µM
same,TGI,[31],60.8 µM
same,TGI,[32],> 100 µM
same,TGI,[33],> 100 µM
same,TGI,[34],> 81.4 µM
same,TGI,[35],> 100 µM
same,TGI,[36],> 100 µM
same,TGI,[37],> 100 µM
same,TGI,[38],> 54.6 µM
same,TGI,[39],50.9 µM
same,TGI,[40],21.7 µM
same,TGI,[41],47 µM
same,TGI,[42],> 77.5 µM
same,TGI,[58],43.5 µM
same,TGI,[43],> 86.9 µM
same,TGI,[44],60.9 µM
same,TGI,[45],> 85.2 µM
same,TGI,[46],> 100 µM
same,TGI,[47],> 100 µM
same,TGI,[48],> 92.2 µM
same,TGI,[49],> 100 µM
same,TGI,[51],99.8 µM
same,TGI,[52],> 94.8 µM
